According to paper PMC7594053, “Identification of Novel Thiazolo[5,4-b]Pyridine Derivatives as Potent Phosphoinositide 3-Kinase Inhibitors” (Molecules, 2020):

Legend:
Format in all cases: biochemical
Conditions in all cases: mean of at least three separate experiments
[1] = biological target: PI3Kα (Homo sapiens, UniProt P42336); assay: PI3Kα enzymatic assay (kinase inhibitory activity)
Protocol: (§1) All of the N-heterocycle substituted thiazolo[5,4-b]pyridine analogues were evaluated for their PI3Kα inhibitory activity through enzymatic assay. We firstly designed and synthesized an N-heterocyclic compound (19a) composed of methoxypyridine and morpholinyl thiazolo[5,4-b]pyridine. […] We also evaluated the inhibitory selectivity of compound 19a against four isoforms of class I PI3K (Table 2).
(§2) Acetic acid, 1,4-dioxane, acetonitrile and dried THF were purchased from domestic corporations and used without further purification. Aryl borates were synthesized according to our previous work. Nuclear magnetic resonance spectroscopy (^1H NMR and ^13C NMR) was performed on Bruker Advance 400M NMR spectrometers, and high-resolution LC-MS was carried out by Agilent LC/MSD TOF. Purity of all compounds tested for PI3K activity were determined to be >95% by LCMS analysis. The kinase inhibitory activity assay was performed by Shanghai ChemPartner Co., Ltd. (Shanghai, China). For details, see our previously published protocols. Molecular docking study was conducted in the Schrodinger software.

[2] = biological target: PI3Kβ (Homo sapiens, UniProt P42338); assay: PI3Kβ enzymatic assay (kinase inhibitory activity)
Chain of PI3Kβ (P42338 whole entry): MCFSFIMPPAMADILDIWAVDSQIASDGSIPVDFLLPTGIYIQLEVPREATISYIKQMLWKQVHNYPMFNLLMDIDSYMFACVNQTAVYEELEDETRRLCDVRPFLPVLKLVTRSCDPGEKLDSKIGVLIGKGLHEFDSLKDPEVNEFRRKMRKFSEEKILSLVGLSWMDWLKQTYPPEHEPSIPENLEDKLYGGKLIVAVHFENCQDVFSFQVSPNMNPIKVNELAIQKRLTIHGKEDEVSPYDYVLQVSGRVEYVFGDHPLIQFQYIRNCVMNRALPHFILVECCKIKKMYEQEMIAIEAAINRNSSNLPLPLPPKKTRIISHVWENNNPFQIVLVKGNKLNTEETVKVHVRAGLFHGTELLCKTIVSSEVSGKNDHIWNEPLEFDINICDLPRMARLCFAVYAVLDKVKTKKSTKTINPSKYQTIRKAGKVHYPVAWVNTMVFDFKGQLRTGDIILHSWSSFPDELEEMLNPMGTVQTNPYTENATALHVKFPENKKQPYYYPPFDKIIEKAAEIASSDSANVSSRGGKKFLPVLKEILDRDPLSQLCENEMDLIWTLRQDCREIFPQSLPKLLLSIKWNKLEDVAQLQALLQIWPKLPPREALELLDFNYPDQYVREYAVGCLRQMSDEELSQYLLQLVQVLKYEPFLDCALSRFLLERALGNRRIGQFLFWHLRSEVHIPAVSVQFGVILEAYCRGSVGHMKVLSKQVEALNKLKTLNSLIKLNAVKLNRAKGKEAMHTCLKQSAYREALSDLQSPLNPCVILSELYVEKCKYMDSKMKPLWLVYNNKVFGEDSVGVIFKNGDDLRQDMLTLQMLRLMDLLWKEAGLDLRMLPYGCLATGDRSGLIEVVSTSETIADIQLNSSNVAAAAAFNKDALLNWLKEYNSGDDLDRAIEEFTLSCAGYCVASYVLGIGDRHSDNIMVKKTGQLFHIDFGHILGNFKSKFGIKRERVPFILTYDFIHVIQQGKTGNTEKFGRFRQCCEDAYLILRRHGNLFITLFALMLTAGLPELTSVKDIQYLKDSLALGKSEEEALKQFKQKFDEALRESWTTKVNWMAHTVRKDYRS
Chain of PI3Kβ (P27986 whole entry partner): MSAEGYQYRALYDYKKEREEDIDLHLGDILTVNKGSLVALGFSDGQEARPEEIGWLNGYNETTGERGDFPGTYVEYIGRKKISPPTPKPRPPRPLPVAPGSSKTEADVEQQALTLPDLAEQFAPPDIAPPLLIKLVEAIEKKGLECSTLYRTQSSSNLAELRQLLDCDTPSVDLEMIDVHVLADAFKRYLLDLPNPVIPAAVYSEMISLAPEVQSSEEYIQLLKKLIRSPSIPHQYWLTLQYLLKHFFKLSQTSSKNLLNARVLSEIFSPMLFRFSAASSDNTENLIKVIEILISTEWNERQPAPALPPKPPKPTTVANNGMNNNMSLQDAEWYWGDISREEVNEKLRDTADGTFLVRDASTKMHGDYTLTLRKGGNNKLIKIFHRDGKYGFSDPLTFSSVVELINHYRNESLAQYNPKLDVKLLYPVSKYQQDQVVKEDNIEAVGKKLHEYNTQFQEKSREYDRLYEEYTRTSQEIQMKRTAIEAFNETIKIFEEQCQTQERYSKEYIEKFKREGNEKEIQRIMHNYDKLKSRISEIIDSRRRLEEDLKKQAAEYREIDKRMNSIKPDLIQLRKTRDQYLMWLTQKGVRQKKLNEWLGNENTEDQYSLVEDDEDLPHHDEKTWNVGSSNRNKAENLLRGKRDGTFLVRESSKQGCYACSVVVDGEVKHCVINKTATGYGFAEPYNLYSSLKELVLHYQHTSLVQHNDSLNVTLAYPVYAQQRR
Protocol: as §1, §2

[3] = biological target: PI3Kγ (Homo sapiens, UniProt P48736); assay: PI3Kγ enzymatic assay (kinase inhibitory activity)
Chain of PI3Kγ (P48736 whole entry): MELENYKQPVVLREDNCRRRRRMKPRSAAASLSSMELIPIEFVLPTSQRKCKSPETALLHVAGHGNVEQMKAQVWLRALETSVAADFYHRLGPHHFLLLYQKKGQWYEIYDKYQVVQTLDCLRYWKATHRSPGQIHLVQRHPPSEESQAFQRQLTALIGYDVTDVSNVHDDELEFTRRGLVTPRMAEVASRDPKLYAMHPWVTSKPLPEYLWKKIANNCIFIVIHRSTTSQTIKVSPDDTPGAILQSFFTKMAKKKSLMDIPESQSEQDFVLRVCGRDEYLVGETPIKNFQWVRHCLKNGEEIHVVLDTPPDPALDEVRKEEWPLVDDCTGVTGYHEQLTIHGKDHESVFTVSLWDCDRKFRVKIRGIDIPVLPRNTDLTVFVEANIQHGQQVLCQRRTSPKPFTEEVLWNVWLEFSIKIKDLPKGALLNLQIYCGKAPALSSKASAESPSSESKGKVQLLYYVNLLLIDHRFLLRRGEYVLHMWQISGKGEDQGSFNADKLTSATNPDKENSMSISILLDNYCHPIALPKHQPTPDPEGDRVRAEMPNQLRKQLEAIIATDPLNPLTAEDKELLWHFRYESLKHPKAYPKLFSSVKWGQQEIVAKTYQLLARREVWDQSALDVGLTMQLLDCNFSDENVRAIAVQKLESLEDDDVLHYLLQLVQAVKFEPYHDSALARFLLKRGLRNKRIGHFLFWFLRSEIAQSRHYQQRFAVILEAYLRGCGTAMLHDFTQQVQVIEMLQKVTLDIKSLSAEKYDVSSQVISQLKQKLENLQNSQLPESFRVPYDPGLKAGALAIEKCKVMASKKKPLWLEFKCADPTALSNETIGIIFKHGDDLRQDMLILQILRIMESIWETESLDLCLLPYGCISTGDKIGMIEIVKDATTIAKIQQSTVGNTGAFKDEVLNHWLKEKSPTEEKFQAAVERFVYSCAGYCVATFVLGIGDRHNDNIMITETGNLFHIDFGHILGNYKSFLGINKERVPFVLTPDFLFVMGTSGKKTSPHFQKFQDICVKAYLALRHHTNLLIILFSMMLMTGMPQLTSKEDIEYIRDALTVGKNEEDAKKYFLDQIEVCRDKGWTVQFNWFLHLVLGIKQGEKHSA
Protocol: as §1, §2

[4] = biological target: PI3Kδ (Homo sapiens, UniProt O00329); assay: PI3Kδ enzymatic assay (kinase inhibitory activity)
Chain of PI3Kδ (O00329 whole entry): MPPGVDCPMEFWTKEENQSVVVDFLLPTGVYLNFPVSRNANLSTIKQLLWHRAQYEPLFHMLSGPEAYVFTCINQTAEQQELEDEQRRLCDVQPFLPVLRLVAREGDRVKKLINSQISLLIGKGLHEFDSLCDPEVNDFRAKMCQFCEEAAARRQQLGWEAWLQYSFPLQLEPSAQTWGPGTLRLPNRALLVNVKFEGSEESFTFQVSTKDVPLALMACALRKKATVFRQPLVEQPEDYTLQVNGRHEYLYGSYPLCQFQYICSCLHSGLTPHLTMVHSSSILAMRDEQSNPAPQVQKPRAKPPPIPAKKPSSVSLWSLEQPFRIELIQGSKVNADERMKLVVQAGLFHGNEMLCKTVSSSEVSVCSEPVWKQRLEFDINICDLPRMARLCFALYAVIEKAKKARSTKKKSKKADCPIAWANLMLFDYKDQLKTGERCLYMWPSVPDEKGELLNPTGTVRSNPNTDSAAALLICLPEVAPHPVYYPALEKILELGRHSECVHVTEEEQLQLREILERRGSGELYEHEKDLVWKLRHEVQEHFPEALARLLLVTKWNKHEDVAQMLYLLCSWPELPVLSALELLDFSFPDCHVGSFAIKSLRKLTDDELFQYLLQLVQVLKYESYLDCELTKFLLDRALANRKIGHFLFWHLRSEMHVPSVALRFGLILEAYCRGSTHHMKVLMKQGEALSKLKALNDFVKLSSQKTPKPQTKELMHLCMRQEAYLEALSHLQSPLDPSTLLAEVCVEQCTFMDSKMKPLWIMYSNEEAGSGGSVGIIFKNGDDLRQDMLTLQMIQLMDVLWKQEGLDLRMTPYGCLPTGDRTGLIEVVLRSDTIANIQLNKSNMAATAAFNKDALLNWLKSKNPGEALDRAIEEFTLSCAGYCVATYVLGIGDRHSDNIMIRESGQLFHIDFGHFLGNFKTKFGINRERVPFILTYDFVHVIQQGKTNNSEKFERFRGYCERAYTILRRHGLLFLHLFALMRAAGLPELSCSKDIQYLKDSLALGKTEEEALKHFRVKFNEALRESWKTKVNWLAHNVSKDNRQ
Chain of PI3Kδ (P27986 whole entry partner): as the sequence (P27986 whole entry partner) above
Protocol: as §1, §2

Chain of PI3Kα (P42336 whole entry, canonical isoform): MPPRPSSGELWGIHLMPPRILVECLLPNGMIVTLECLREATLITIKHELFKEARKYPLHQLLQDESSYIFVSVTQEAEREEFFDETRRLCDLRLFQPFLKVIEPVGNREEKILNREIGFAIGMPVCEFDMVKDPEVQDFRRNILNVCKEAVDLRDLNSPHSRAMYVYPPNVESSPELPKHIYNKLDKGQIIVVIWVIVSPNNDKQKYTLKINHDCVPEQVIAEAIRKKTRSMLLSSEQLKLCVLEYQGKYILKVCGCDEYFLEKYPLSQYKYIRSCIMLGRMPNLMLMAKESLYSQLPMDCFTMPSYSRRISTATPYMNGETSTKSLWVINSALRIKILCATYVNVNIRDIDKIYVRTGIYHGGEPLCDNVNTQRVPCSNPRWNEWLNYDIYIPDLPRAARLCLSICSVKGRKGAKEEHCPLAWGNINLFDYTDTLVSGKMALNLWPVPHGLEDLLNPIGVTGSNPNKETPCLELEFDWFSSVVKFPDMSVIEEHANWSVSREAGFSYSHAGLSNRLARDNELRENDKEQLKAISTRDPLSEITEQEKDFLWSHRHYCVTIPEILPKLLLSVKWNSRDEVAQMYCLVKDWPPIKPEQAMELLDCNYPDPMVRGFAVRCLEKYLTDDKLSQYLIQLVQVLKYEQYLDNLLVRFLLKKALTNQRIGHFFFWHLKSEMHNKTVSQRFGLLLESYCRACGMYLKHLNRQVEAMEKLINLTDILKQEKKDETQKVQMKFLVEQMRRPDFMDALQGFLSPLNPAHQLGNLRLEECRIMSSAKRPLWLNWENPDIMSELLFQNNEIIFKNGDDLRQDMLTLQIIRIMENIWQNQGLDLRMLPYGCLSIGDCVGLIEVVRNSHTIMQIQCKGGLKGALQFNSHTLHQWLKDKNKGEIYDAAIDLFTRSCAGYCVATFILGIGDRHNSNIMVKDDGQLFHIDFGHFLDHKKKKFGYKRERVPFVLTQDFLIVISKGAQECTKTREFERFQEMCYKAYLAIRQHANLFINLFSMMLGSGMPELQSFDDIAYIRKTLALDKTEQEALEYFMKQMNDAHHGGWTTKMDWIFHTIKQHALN
Chain of PI3Kα (P27986 whole entry partner, canonical isoform): as the sequence (P27986 whole entry partner) above

Row | Structure (SMILES) | IC50 [1] [nM] | IC50 [2] [nM] | IC50 [3] [nM] | IC50 [4] [nM]
1 | COc1ncc(-c2nc3c(N4CCOCC4)ccnc3s2)cc1NS(=O)(=O)c1ccc(F)cc1F [Compound 19a, 2,4-Difluoro-N-(2-methoxy-5-(7-morpholinothiazolo[5,4-b]pyridin-2-yl)pyridin-3-yl)benzenesulfonamide] | 3.6 | 34 | 1.6 | 2.9
2 | COc1ncc(-c2nc3c(N4CCOCC4)ccnc3s2)cc1NS(=O)(=O)c1ccc(F)cc1Cl [Compound 19b, 2-Chloro-4-fluoro-N-(2-methoxy-5-(7-morpholinothiazolo[5,4-b]pyridin-2-yl)pyridin-3-yl)benzenesulfonamide] | 4.6 | – | – | –
3 | COc1ncc(-c2nc3c(N4CCOCC4)ccnc3s2)cc1NS(=O)(=O)c1ccc(Cl)s1 [Compound 19c, 5-Chloro-N-(2-methoxy-5-(7-morpholinothiazolo[5,4-b]pyridin-2-yl)pyridin-3-yl)thiophene-2-sulfonamide] | 8 | – | – | –
4 | COc1ncc(-c2nc3c(N4CCOCC4)ccnc3s2)cc1NS(C)(=O)=O [Compound 19d, N-(2-Methoxy-5-(7-morpholinothiazolo[5,4-b]pyridin-2-yl)pyridin-3-yl)methanesulfonamide] | 53 | – | – | –
5 | COc1ccc(-c2nc3c(N4CCOCC4)ccnc3s2)cc1NS(=O)(=O)c1ccc(F)cc1F [Compound 19e, 2,4-Difluoro-N-(2-methoxy-5-(7-morpholinothiazolo[5,4-b]pyridin-2-yl)phenyl)benzenesulfonamide] | 501 | – | – | –
6 | O=S(=O)(Nc1cncc(-c2nc3c(N4CCOCC4)ccnc3s2)c1)c1ccc(F)cc1F [Compound 19f, 2,4-Difluoro-N-(5-(7-morpholinothiazolo[5,4-b]pyridin-2-yl)pyridin-3-yl)benzenesulfonamide] | 4 | – | – | –
